Data taken from article PMC12756865, “Inhibitory effect of oestradiol on the cardiac KV7.1/KCNE1 channel is species dependent” (Experimental Physiology, 2025).

Assays:
Type in all cases: cell-based
rabbit KV7.1/human KCNE1 = molecular target: T1, rabbit KV7.1/human KCNE1 (Oryctolagus cuniculus; Homo sapiens, UniProt P15382+Q9MYS6); assay: two-electrode voltage clamp, Xenopus oocytes, change of Gmax; details: 10 µM; inhibition; EC50 fit ambiguous; pH 7.4, about 20 °C; ethanol vehicle
T1 construct: gene KCNQ1; cross-species complex of two intact wild-type subunits (no fusion): rabbit KV7.1 and human KCNE1 cRNAs co-injected in Xenopus laevis oocytes
T1 sequence (Q9MYS6 whole entry, the tested form may be a part): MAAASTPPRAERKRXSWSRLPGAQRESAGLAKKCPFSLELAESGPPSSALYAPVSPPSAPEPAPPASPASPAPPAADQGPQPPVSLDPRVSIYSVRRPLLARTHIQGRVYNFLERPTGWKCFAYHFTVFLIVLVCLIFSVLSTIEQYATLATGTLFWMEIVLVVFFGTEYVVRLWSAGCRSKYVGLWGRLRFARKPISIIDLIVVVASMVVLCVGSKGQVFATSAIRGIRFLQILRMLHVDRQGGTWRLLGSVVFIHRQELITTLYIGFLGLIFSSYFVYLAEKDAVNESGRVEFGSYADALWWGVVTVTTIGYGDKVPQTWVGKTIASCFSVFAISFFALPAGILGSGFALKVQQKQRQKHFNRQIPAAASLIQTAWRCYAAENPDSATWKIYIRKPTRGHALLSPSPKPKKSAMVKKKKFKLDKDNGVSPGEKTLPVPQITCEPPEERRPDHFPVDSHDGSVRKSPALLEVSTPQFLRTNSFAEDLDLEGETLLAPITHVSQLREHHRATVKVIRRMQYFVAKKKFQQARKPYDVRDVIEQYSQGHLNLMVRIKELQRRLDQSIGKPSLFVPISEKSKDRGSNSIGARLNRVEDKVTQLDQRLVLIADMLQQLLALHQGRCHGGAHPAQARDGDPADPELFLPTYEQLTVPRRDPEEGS
From the text: two-electrode voltage clamp, Xenopus oocytes, change of Gmax on rabbit KV7.1/human KCNE1

guinea pig KV7.1/KCNE1 = molecular target: T2, guinea pig KV7.1/KCNE1 (Cavia porcellus, UniProt A6Y9U2+Q60409); assay: as above; details: 3 µM; inhibition; EC50 fit ambiguous; pH 7.4, about 20 °C; ethanol vehicle
T2 construct: gene KCNQ1; wild-type KV7.1 and KCNE1 cRNAs co-injected in Xenopus laevis oocytes; KCNE1 in excess; four KV7.1 with one to four KCNE1
From the text: two-electrode voltage clamp, Xenopus oocytes, change of Gmax on guinea pig KV7.1/KCNE1

[1] = molecular target: T3, human KV7.1/KCNE1 (tested as KV7.1/KCNE1_K69Q) (Homo sapiens, UniProt P15382+P51787, P15382:K69Q); assay: two-electrode voltage clamp, Xenopus oocytes, reduction of Gmax
T3 construct: gene KCNQ1; KV7.1 and KCNE1 cRNAs co-injected in Xenopus laevis oocytes; KCNE1 in excess; four KV7.1 with one to four KCNE1
T3 sequence (P51787 whole entry): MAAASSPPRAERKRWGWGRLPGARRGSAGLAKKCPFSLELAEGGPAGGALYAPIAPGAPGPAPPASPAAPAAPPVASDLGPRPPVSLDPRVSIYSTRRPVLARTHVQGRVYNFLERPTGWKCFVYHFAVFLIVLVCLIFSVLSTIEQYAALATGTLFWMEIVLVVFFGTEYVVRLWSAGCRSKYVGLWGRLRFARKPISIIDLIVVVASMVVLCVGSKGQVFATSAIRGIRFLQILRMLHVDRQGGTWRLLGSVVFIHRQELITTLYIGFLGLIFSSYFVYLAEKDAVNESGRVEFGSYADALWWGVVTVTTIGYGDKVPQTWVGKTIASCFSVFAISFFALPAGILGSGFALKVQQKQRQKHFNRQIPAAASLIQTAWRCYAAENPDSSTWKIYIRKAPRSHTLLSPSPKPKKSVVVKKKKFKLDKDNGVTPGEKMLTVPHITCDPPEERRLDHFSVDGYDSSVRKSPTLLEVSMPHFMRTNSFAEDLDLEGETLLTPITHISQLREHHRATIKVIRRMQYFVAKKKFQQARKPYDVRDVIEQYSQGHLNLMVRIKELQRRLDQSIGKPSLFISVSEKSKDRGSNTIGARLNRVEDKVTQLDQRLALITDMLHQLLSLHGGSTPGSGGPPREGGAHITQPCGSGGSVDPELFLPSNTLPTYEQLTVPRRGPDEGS

human KV7.1/rabbit KCNE1 = molecular target: T4, human KV7.1/rabbit KCNE1 (Homo sapiens; Oryctolagus cuniculus, UniProt P51787+Q28705); assay: two-electrode voltage clamp, Xenopus oocytes, change of Gmax; details: 10 µM; inhibition; EC50 fit ambiguous; pH 7.4, about 20 °C; ethanol vehicle
T4 construct: gene KCNQ1; cross-species complex of two intact wild-type subunits (no fusion): human KV7.1 and rabbit KCNE1 cRNAs co-injected in Xenopus laevis oocytes
T4 sequence (P51787 whole entry, the tested form may be a part): as the sequence (P51787 whole entry) above
T4 sequence (Q28705 whole entry, the tested form may be a part): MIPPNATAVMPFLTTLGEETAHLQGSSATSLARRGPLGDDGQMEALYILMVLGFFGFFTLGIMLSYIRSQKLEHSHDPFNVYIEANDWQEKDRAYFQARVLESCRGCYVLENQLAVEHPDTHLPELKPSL
From the text: two-electrode voltage clamp, Xenopus oocytes, change of Gmax on human KV7.1/rabbit KCNE1

rabbit KV7.1/KCNE1 = molecular target: T5, rabbit KV7.1/KCNE1 (Oryctolagus cuniculus, UniProt Q28705+Q9MYS6); assay: two-electrode voltage clamp, Xenopus oocytes, reduction of Gmax
T5 construct: gene KCNQ1; wild-type KV7.1 and KCNE1 cRNAs co-injected in Xenopus laevis oocytes; KCNE1 in excess; four KV7.1 with one to four KCNE1
T5 sequence (Q9MYS6 whole entry): as the sequence (Q9MYS6 whole entry, the tested form may be a part) above
T5 sequence (Q28705 whole entry): as the sequence (Q28705 whole entry, the tested form may be a part) above

## C[C@]12CC[C@@H]3c4ccc(O)cc4CC[C@H]3[C@@H]1CC[C@@H]2O [17β‐E2]
Rabbit KV7.1/human KCNE1
  ΔG max: −91.9 ± 3.0 (SEM) %
Guinea pig KV7.1/KCNE1
  ΔG max: −37.8 ± 3.7 (SEM) %
[1]
  EC50: 2900 nM
Human KV7.1/rabbit KCNE1
  ΔG max: −77.8 ± 6.2 (SEM) %
Rabbit KV7.1/KCNE1
  EC50: 230 nM
